Measurements as given in patent publication US4340594A, “Fat emulsion containing steroid” (The Green Cross Corporation, priority 1980, dated 1982).

How the values were obtained:
in vivo = details: mouse, iv
dd strain mice = details: mouse, in vivo, iv

| Compound | LD50 (in vivo) [mg/kg] | LD50 (dd strain mice) [mg/kg] |
| --- | --- | --- |
| C[C@@H]1C[C@H]2[C@@H]3CCC4=CC(=O)C=C[C@]4(C)[C@@]3(F)[C@@H](O)C[C@]2(C)[C@@]1(O)C(=O)COP(=O)(O)O [dexamethasone phosphate] | 140 | 115 |
| CCCCCCCCCCCCCCCC(=O)OCC(=O)[C@@]1(O)[C@H](C)C[C@H]2[C@@H]3CCC4=CC(=O)C=C[C@]4(C)[C@@]3(F)[C@@H](O)C[C@@]21C [dexamethasone palmitate] | 580 | 420 |
